Experimental data published in patent US7244557B2, “Method of screening modulators of Nod1 signaling” (Regents of the University of Michigan, priority 2003, dated 2007).

Target: T1, TLR2 (Homo sapiens, UniProt O60603)
T1 construct: expressed in transfected cells; host or cells: HEK293T
Experiment: NF-κB activation assay, cells expressing TLR2 or TLR2 with TLR1 and/or TLR6
Type: cell-based
Details: 1 μg/ml
Protocol: A) Structure of purified PGN fraction from B. subtilis (GM3P) and synthetic PGN-related compounds used in the study. B) Structure of MDP and four copies of GlcNAc-MurNAc with attached L-Ala-γ-D-Gln (4 mer) are indicated by closed and dotted boxes, respectively. C) The ability of cells were transfected with 0.3 ng pcDNA3-NOD1-Flag, 0.1 ng pcDNA3-Nod2 (NOD2) or vector control and reporter pBxIV-luc and pEF-BOS-β-gal plasmids to activate NF-κB. D) The ability of synthetic peptides, iE-DAP and iQ-DAP to stimulate NF-κB activation in the presence of control vector (−) and plasmids encoding NOD1 wild-type, mutant NOD1 lacking LRRs (NOD1ΔLRR) and NOD2. E) The ability of iE-DAP, iQ-DAP and sBLP (1 μg/ml) to activate NF-κB.
Reagents. LPS from S. typhimurium, intact and alkaline-detoxified LPS from E. coli O55:B5 as well as purified lipid A preparations of E. coli F583, MDP, DAP and dsRNA were obtained from Sigma-Aldrich (St. Louis, Mo.). PGN from S. aureus was from Fluka-Chemie (Buchs, Germany). Palmitoyl-Cys ((RS)-2,3-di(palmitoyloxy)-propyl)-Ala-Gly) (sBLP), was obtained from Bachem (Torrance, Calif.). The tetrameric form of the disaccharide dipeptide was described previously (Inohara et al., J. Biol. Chem. 278:5509 [2003]). iE-DAP and iQ-DAP, M3P and M4P were synthesized as described (Kitaura et al., J. Med. Chem. 25:335 [1982]) with small modification. Purification of PGN from B. subtilis 168 and C. flaccumfaciens with hydrolases, Cellosyl or recombinant AtlE (amidase domain) and the fractionation and purification of reduced B. subtilis PGN digested with Cellosyl were performed as previously described (Heilman et al., Mol. Microbiol. 24:1013 [1997]; Atrih et al., J. Bact. 181:3956 [1999]). Removal of proteins and reduction of LPS fraction. E. coli O55:B5 LPS (Sigma) was treated with proteinase K at 37° C. for 12 hr to digest contaminating proteins. […] The amino acid composition of E. coli O55:B5 LPS was determined using AccQ·Tag amino acid analysis system (Waters, Milford, Mass.) after hydrolysis at 110° C. for 24 hr. […]

T1 sequence (O60603 21-784, species assumed): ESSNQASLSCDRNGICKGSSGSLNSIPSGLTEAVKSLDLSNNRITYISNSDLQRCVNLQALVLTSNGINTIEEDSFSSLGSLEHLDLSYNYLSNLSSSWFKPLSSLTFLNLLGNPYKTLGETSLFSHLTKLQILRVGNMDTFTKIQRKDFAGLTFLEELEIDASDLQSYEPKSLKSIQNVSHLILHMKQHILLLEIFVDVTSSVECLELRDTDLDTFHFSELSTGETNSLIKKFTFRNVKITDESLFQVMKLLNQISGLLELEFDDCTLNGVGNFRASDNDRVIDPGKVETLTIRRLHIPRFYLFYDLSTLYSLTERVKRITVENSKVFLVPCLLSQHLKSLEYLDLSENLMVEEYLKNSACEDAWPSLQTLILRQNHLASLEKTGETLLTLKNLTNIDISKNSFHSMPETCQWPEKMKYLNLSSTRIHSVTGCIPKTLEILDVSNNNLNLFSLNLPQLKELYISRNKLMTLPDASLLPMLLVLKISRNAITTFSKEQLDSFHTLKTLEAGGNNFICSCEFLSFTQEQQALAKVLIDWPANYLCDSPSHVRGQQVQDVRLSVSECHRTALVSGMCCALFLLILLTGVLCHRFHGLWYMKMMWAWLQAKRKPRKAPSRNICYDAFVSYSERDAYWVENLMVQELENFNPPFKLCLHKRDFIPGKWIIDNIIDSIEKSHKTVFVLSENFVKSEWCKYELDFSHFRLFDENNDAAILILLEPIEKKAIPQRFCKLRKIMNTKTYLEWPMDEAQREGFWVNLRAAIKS

| Substance | NF-κB activation via TLR2 or TLR2 co-expressed with TLR1 and/or TLR6 |
| --- | --- |
| γ-D-Gln-DAP [iQ-DAP] | not TLR2 or TLR2 co-expressed with TLR1 and/or TLR6 |
| γ-D-glutamy-meso-diaminopimelic acid [iE-DAP] | not TLR2 or TLR2 co-expressed with TLR1 and/or TLR6 |
| Palmitoyl-Cys ((RS)-2,3-di(palmitoyloxy)-propyl)-Ala-Gly) [synthetic lipoprotein] | activated TLR2 |
